Measured values published in patent publication EP2204398A1, “CA[…] DERIVATIVE AND USES OF THE SAME” (NanoCarrier Co., Ltd., priority 2008, dated 2009).

Assays:
[1] = Test for blood kinetics in rat (CPT concentration in blood plasma by HPLC); assay type: in vivo, male Wister rat; conditions: tail vein, camptothecin in DMSO, administered in the same manner, n=1
Description: In a sample vial, 50 mg of the complex obtained in Example 1 which was weighed precisely was placed, and 1 mL of purified water was added thereto, followed by suspending the polymer. The resulting suspension was stirred for one day and night, and sonicated using Biodisruptor (Nihonseiki Kaisha Ltd., High Power Unit) with ice cooling for 10 minutes, followed by filtration through a 0.22 µm filter (Millipore, MILLEX (registered trademark) GP PES) and recovery of the resulting filtrate. […]
To 30 µL of the collected rat blood plasma, 100 µL of acetonitrile and 20 µL of 10 mM HCl were sequentially added, and the resulting mixture was stirred. […] The filtrate was filled in an HPLC sample vial, and the concentration of free CPT in the blood plasma was determined.
The HPLC conditions were as followed. Unless otherwise specified, the HPLC analysis of CPT was carried out under the same conditions. • System: Waters Alliance System • Column: Tosoh TSK-gel ODS-80TM (Φ4.6 × 150 mm) (40°C) • Mobile phase: 25 mM ammonium formate buffer (pH 3.0)/acetonitrile=70/30 • Flow rate: 1 mL/min. • Detection: fluorescence (Ex: 370 nm, Em: 420 nm) Injection volume: 20 µL

[2] = test system: Human Prostate Cancer PC-3 Cells; assay: Test for pharmacological effect using human prostate cancer PC-3 cells - 1 (tumor volume); assay type: in vivo, male nude mice; conditions: CPT DMSO solution 7 mg/kg, tail vein, 3 times at intervals of 4 days, n=7
Description: (§1) PC-3 cells (purchased from ATCC via Summit Pharmaceuticals International Corporation; which provision is also applied hereinafter) were cultured using RPMI1640 + 10% FBS medium under 5% CO2 at 37°C to allow their growth to attain the cell number required for transplantation. The cells were suspended in physiological saline and subcutaneously inoculated to the back of male nude mice [Blab nu/nu, 8 weeks old, Charles River Laboratories Japan] such that the dose of 3 × 10^6 cells/100 µL per mouse was attained. Thereafter, the nude mice were kept for 7 days, and when the tumor volume reached 83.3 t 6.2 mm^3 (average ± SE, wherein SE indicates standard error; which provision is also applied hereinafter), administration of drugs were started. A total of 3 times of administration through the tail vein at intervals of 4 days were scheduled, and changes in the tumor volume and body weight with time were measured for 3 groups (n=7), that is, (1) control (untreated); (2) the CPT DMSO solution 7 mg/kg; and (3) PEG-pAsp-CPT 3 mg/kg (the dose is based on the amount of camptothecin (mg/kg/injection)). The major diameter (a mm) and the minor diameter (b mm) of each tumor were measured using an electronic caliper (Mitutoyo Corporation), and the tumor volume was calculated according to the following equation.
(§2) Tumor volume (mm^3) = a × b^2 /2 [formula] […]

[3] = Changes in body weight in PC-3 tumor-bearing animals, test 1; assay type: in vivo, male nude mice; conditions: CPT DMSO solution 7 mg/kg, tail vein, 3 times at intervals of 4 days, n=7
Description: as §1, §2

## CC[C@@]1(O)C(=O)OCc2c1cc1n(c2=O)Cc2cc3ccccc3nc2-1 [CPT solution, camptothecin]
[1]
  blood concentration: decreased rapidly
[2]
  tumor growth inhibition effect in comparison with the control group: hardly observed
[3]
  body weight decrease at maximum: ≥ 10%
